# Results: US12459951B2, “Compounds that interact with RAS superfamily proteins for treatment of cancers, inflammatory diseases, rasopathies, and fibrotic disease” (SHY Therapeutics, LLC, priority 2022, dated 2025)
# Experiments:
# [1] = system: Akt phosphorylation; experiment: Akt Phosphorylation Assay (western blot), Panc-1; assay type: cell-based, human; conditions: at 10 μM, * = activation
# How it was run: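 Phospho-Akt (Ser473) was measured by western blot in lysates of KRas G12D Panc-1 cells exposed to test compound for 6 h at 37 °C, either at 10 μM final with 0.3% DMSO or as serial dilutions for IC50. One format used overnight 0.5% FBS starvation followed by a 15 min pulse of 1.5 ng/ml EGF. The other used cells in 10% FBS with no stimulation.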
# [2] = system: KRas Q61H mutant; experiment: Ras GTP Binding Domain Inhibition Assay (Ras Superfamily Assay); conditions: 20 μM compound; for KRas Q61H mutant + SOS: % inh.: with SOS; for KRas Q61H mutant: % inh.: without SOS
# How it was run: (§1)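 Ni-plate capture of His-tagged protein (10-30 μg/mL, o/n 4° C); cpd 20 μM or dilution series, 1% DMSO, 3 h RT ± Sos 556-1049 last h; 100 nM Cy-labelled GTP 45 min RT; 3× wash; fluorescence read.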
# [3] = biological target: T1, Rho-A (Homo sapiens, UniProt P61586); experiment: as above; conditions: read-out: Rho-A: % inh..
# T1 construct: made in house
# How it was run: as §1
# [4] = biological target: T2, Rac-1 (Homo sapiens, UniProt P63000); experiment: as above; conditions: read-out: Rac-1: % inh.
# T2 construct: made in house
# How it was run: as §1
# [5] = system: IL6; experiment: IL-6 Quantification Assay (ELISA), LPS-stimulated RAW 264.7; assay type: cell-based; design: inhibition: dose or concentration left out as unconfirmed; conditions: Mus musculus, RAW264.7; read-out: IL-6: % inh.
# [6] = system: TNF-alpha; experiment: TNF-alpha Quantification Assay (ELISA), LPS-stimulated RAW 264.7; assay type: cell-based; conditions: Mus musculus, RAW264.7; at 10 μM; read-out: TNFα: % inh.
# T1 sequence (P61586 whole entry): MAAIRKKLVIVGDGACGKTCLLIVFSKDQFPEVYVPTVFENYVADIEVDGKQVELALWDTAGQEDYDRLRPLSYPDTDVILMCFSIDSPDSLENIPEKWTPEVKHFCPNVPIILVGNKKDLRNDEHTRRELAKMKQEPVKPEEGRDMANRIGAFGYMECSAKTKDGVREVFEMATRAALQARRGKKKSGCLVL
KRas Q61H mutant + SOS: % inh. [2],KRas Q61H mutant: % inh. [2],inhibition at 20 µM [3],inhibition at 20 µM [4],Structure (SMILES),% inh of Akt phosphorylation in Panc-1 [1],inhibition [5],inhibition at 10 µM [6]
D (D = 76-100% inhibition),D (D = 76-100% inhibition),76 to 100%,76 to 100%,"Cc1c(-c2ccn(C(C)C)n2)cn2nc(-c3nccn3C)nc(Nc3cc(C4CC4)n[nH]3)c12 [Compound 68, N-(3-Cyclopropyl-1H-pyrazol-5-yl)-6-(1-isopropyl-1H-pyrazol-3-yl)-5-methyl-2-(1-methyl-1H-imidazol-2-yl)pyrrolo[2,1-f][1,2,4]triazin-4-amine]",D* (85-100% activation),1 to 24%,25 to 49%
0 (0 = 0% inhibition),A (A = 1-25% inhibition),1 to 25%,1 to 25%,"Cc1c(-c2ccn(C(C)C)n2)cn2nc(-c3nccn3C)nc(Nc3cc(C4CC4)no3)c12 [Compound 69, 3-Cyclopropyl-N-(6-(1-isopropyl-1H-pyrazol-3-yl)-5-methyl-2-(1-methyl-1H-imidazol-2-yl)pyrrolo[2,1-f][1,2,4]triazin-4-yl)isoxazol-5-amine]",D* (85-100% activation),50 to 74%,1 to 24%
0 (0 = 0% inhibition),A (A = 1-25% inhibition),1 to 25%,1 to 25%,"Cc1c(-c2ccn(C(C)C)n2)cn2nc(-c3nccn3C)nc(Nc3nc(C4CC4)no3)c12 [Compound 70, 3-Cyclopropyl-N-(6-(1-isopropyl-1H-pyrazol-3-yl)-5-methyl-2-(1-methyl-1H-imidazol-2-yl)pyrrolo[2,1-f][1,2,4]triazin-4-yl)-1,2,4-oxadiazol-5-amine]",C* (46-84% activation),50 to 74%,1 to 24%
0 (0 = 0% inhibition),0 (0 = 0% inhibition),1 to 25%,1 to 25%,"COc1ccc(Nc2nc(-c3nccn3C)nn3cc(-c4ccn(C(C)C)n4)c(C)c23)cn1 [Compound 71, 6-(1-Isopropyl-1H-pyrazol-3-yl)-N-(6-methoxypyridin-3-yl)-5-methyl-2-(1-methyl-1H-imidazol-2-yl)pyrrolo[2,1-f][1,2,4]triazin-4-amine]",D* (85-100% activation),0%,0%
D (D = 76-100% inhibition),C (C = 50-75% inhibition),76 to 100%,76 to 100%,"Cc1c(-c2ccn(C(C)C)n2)cn2nc(-c3nccn3C)nc(Nc3ccn(C(C)C)n3)c12 [Compound 72, N,6-bis(1-Isopropyl-1H-pyrazol-3-yl)-5-methyl-2-(1-methyl-1H-imidazol-2-yl)pyrrolo[2,1-f][1,2,4]triazin-4-amine]",D* (85-100% activation),50 to 74%,1 to 24%
C (C = 50-75% inhibition),C (C = 50-75% inhibition),76 to 100%,50 to 75%,"COc1cncnc1Nc1nc(-c2nccn2C)nn2cc(-c3ccn(C(C)C)n3)c(C)c12 [Compound 73, 6-(1-Isopropyl-1H-pyrazol-3-yl)-N-(5-methoxypyrimidin-4-yl)-5-methyl-2-(1-methyl-1H-imidazol-2-yl)pyrrolo[2,1-f][1,2,4]triazin-4-amine]",D* (85-100% activation),50 to 74%,0%
